Results reported in patent US20040086901A1, “Database for analyzing gene function and method of analyzing gene function by dspa” (priority 2000, published 2004).

Columns and labels:
Format in all cases: cell-based, mouse
[1] = system: NIH3T3 cells overexpressing HNF1; experiment: MTT cell viability, HNF1 overexpressing cells vs parental line; settings: HNF1 high-expressing cells / parental cell line, 3 to 4 days
Method: (§1) With regard to the function-known genes, the genes shown in the left column of Table 2 were used. With regard to the drugs, those shown in Table 1 were dissolved in DMSO to an extent of 100-fold of the maximum concentration for the search of the drugs and used. With regard to the cells, incubated NIH3T3 or ras-NIH3T3 cells were used.
(§2) Full-length cDNA of each function-known genes was incorporated into an expression vector (pRc-CMV, etc.) and transfected into NIH3T3 cells by a common method. Transformed cells were isolated using the resistance to G-418 as an index and the expression of the transfected gene in each cell was investigated by Western blotting method to select a highly expressing line.
(§3) Cell viabilities were measured according to the following procedures.
(§4) 1) From the 2nd to the 11th rows of a 96-well plate were filled with DMEM (50 μl). The 12th row was filled with 100 μl of DMEM.
(§5) 2) The 1st row was filled with 98 μl of DMEM.
(§6) 3) Drugs (2 μl each) were added into the 1st row.
(§7) 4) Continuous double-dilution was conducted from the 1st to the 9th rows. Fifty μl were taken out from the 9th row and discarded. The plate was preserved in a CO2 incubator.
(§8) 5) Cells (each high-expressing cells and the parental cell line) were detached from the medium using a trypsin solution, suspended in 10% CS-DMEM and transferred to a test tube and cell numbers (cell/ml) were counted.
(§9) 6) The cells were diluted to a concentration of 1×10^5 cells/ml, and 50 μl of the cell suspension were added to the 1st to the 11th rows of the plate followed by gently stirring.
(§10) 7) The plate was transferred to the CO2 incubator and incubated for 3 to 4 days.
(§11) 8) MTT (5 mg/ml in PBS) (10 μl) was added to the 1st to the 12th rows of the plate and incubated in the CO2 incubator at 37° C. for 4 hours.
(§12) 9) A reaction stop solution (0.04N HCl in isopropanol) (150 μl) was added followed by mixing well and being allowed to stand at room temperature for about 2 hours.
(§13) 10) Coloration of formazan which was a metabolite of the MTT dye was measured using a microplate reader. The measurement wavelength was 574 nm and the reference wavelength was 655 nm. The 10th and the 11th rows of the plate were 100% controls and the 12th row was a 0% control.
(§14) As an index for the sensitivity of highly gene-expressing cells and the parental cell line to various drugs, each of the IC40 values thereof was specified and ratios of the IC40 values were calculated. […] After that, logarithmic values of ratios of IC40 values were calculated from each gene.

[2] = system: NIH3T3 cells overexpressing HNF4; experiment: MTT cell viability, HNF4 overexpressing cells vs parental line; settings: HNF4 high-expressing cells / parental cell line, 3 to 4 days
Method: as §1, §2, §3, §4, §5, §6, §7, §8, §9, §10, §11, §12, §13, §14

[3] = system: NIH3T3 cells overexpressing cystatin alpha; experiment: MTT cell viability, cystatin alpha overexpressing cells vs parental line; settings: cystatin alpha high-expressing cells / parental cell line, 3 to 4 days
Method: as §1, §2, §3, §4, §5, §6, §7, §8, §9, §10, §11, §12, §13
(§15) As an index for the sensitivity of highly gene-expressing cells and the parental cell line to various drugs, each of the IC40 values thereof was specified and ratios of the IC40 values were calculated. FIG. 2 and FIG. 3 are the examples where ratios of IC40 values were calculated from a curve showing the dependency on the concentration of the chemical versus the viability. After that, logarithmic values of ratios of IC40 values were calculated from each gene.

[4] = system: NIH3T3 cells overexpressing TK; experiment: MTT cell viability, TK overexpressing cells vs parental line; settings: TK high-expressing cells / parental cell line, 3 to 4 days
Method: as §1, §2, §3, §4, §5, §6, §7, §8, §9, §10, §11, §12, §13, §15

[5] = system: NIH3T3 cells overexpressing Ki-ras; experiment: MTT cell viability, Ki-ras overexpressing cells vs parental line; settings: Ki-ras high-expressing cells / parental cell line, 3 to 4 days
Method: as §1, §2, §3, §4, §5, §6, §7, §8, §9, §10, §11, §12, §13, §15

[6] = system: NIH3T3 cells overexpressing STAT1; experiment: MTT cell viability, STAT1 overexpressing cells vs parental line; settings: STAT1 high-expressing cells / parental cell line, 3 to 4 days
Method: as §1, §2, §3, §4, §5, §6, §7, §8, §9, §10, §11, §12, §13, §14

[7] = system: NIH3T3 cells overexpressing cystatin E; experiment: MTT cell viability, cystatin E overexpressing cells vs parental line; settings: cystatin E high-expressing cells / parental cell line, 3 to 4 days
Method: as §1, §2, §3, §4, §5, §6, §7, §8, §9, §10, §11, §12, §13, §15

[8] = system: NIH3T3 cells overexpressing caspase-1; experiment: MTT cell viability, caspase-1 overexpressing cells vs parental line; settings: caspase-1 high-expressing cells / parental cell line, 3 to 4 days
Method: as §1, §2, §3, §4, §5, §6, §7, §8, §9, §10, §11, §12, §13, §14

[9] = system: NIH3T3 cells overexpressing CBP8; experiment: MTT cell viability, CBP8 overexpressing cells vs parental line; settings: CBP8 high-expressing cells / parental cell line, 3 to 4 days
Method: as §1, §2, §3, §4, §5, §6, §7, §8, §9, §10, §11, §12, §13, §15

[10] = system: NIH3T3 cells overexpressing p33/ING1; experiment: MTT cell viability, p33/ING1 overexpressing cells vs parental line; settings: p33/ING1 high-expressing cells / parental cell line, 3 to 4 days
Method: as §1, §2, §3, §4, §5, §6, §7, §8, §9, §10, §11, §12, §13, §15

[11] = system: NIH3T3 cells overexpressing Bax; experiment: MTT cell viability, Bax overexpressing cells vs parental line; settings: 3 to 4 days
Method: as §1, §2, §3, §4, §5, §6, §7, §8, §9, §10, §11, §12, §13, §14

[12] = system: NIH3T3 cells overexpressing PDGF-R-Del; experiment: MTT cell viability, PDGF-R-Del overexpressing cells vs parental line; settings: PDGF-R-Del high-expressing cells / parental cell line, 3 to 4 days
Method: as §1, §2, §3, §4, §5, §6, §7, §8, §9, §10, §11, §12, §13, §15

[13] = system: NIH3T3 cells overexpressing PKCepsilon-KN; experiment: MTT cell viability, PKCepsilon-KN overexpressing cells vs parental line; settings: 3 to 4 days
Method: as §1, §2, §3, §4, §5, §6, §7, §8, §9, §10, §11, §12, §13, §14

[14] = system: NIH3T3 cells overexpressing p38-DN; experiment: MTT cell viability, p38-DN overexpressing cells vs parental line; settings: p38-DN high-expressing cells / parental cell line, 3 to 4 days
Method: as §1, §2, §3, §4, §5, §6, §7, §8, §9, §10, §11, §12, §13, §14

[15] = system: NIH3T3 cells overexpressing calpastatin; experiment: MTT cell viability, calpastatin overexpressing cells vs parental line; settings: calpastatin high-expressing cells / parental cell line, 3 to 4 days
Method: as §1, §2, §3, §4, §5, §6, §7, §8, §9, §10, §11, §12, §13, §15

[16] = system: NIH3T3 cells overexpressing coup; experiment: MTT cell viability, coup overexpressing cells vs parental line; settings: coup high-expressing cells / parental cell line, 3 to 4 days
Method: as §1, §2, §3, §4, §5, §6, §7, §8, §9, §10, §11, §12, §13, §15

[17] = system: NIH3T3 cells overexpressing HNF3b; experiment: MTT cell viability, HNF3b overexpressing cells vs parental line; settings: HNF3b high-expressing cells / parental cell line, 3 to 4 days
Method: as §1, §2, §3, §4, §5, §6, §7, §8, §9, §10, §11, §12, §13, §14

[18] = system: NIH3T3 cells overexpressing caspase-2; experiment: MTT cell viability, caspase-2 overexpressing cells vs parental line; settings: caspase-2 high-expressing cells / parental cell line, 3 to 4 days
Method: as §1, §2, §3, §4, §5, §6, §7, §8, §9, §10, §11, §12, §13, §15

[19] = system: NIH3T3 cells overexpressing N-ras; experiment: MTT cell viability, N-ras overexpressing cells vs parental line; settings: N-ras high-expressing cells / parental cell line, 3 to 4 days
Method: as §1, §2, §3, §4, §5, §6, §7, §8, §9, §10, §11, §12, §13, §15

[20] = Bax (first of two Bax lines) high-expressing cells / parental cell line
[21] = Bax (second of two Bax lines) high-expressing cells / parental cell line
[22] = PKCepsilon-KN (first of two lines) high-expressing cells / parental cell line
[23] = PKCepsilon-KN (second of two lines) high-expressing cells / parental cell line

| Compound | logarithmic value of ratio of IC40 values [1] | logarithmic value of ratio of IC40 values [2] | logarithmic value of ratio of IC40 values [3] | logarithmic value of ratio of IC40 values [4] | logarithmic value of ratio of IC40 values [5] | logarithmic value of ratio of IC40 values [6] | logarithmic value of ratio of IC40 values [7] | logarithmic value of ratio of IC40 values [8] | logarithmic value of ratio of IC40 values [9] | logarithmic value of ratio of IC40 values [10] | logarithmic value of ratio of IC40 values [11, 20] | logarithmic value of ratio of IC40 values [11, 21] | logarithmic value of ratio of IC40 values [12] | logarithmic value of ratio of IC40 values [13, 22] | logarithmic value of ratio of IC40 values [13, 23] | logarithmic value of ratio of IC40 values [14] | logarithmic value of ratio of IC40 values [15] | logarithmic value of ratio of IC40 values [16] | logarithmic value of ratio of IC40 values [17] | logarithmic value of ratio of IC40 values [18] | also measured |
| --- | --- | --- | --- | --- | --- | --- | --- | --- | --- | --- | --- | --- | --- | --- | --- | --- | --- | --- | --- | --- | --- |
| CCCC[C@@H](C)/C=C(C)/C=C(\C)C(=O)NC1=C[C@@](O)(/C=C/C=C/C=C/C(=O)NC2=C(O)CCC2=O)[C@@H]2O[C@@H]2C1=O [Manumycin, manumycin] | 0.06 | 0.00 | −0.19 | 0.00 | −0.24 | 0.00 | 0.00 | −0.06 | 0.09 | 0.18 | −0.07 | 0.06 | 0.09 | −0.11 | 0.16 | 0.00 | 0.02 | 0.09 | −0.06 | 0.08 | logarithmic value of ratio of IC40 values [19]: −0.09 |
| sodium vanadate | 0.046 | −0.03 | 0.08 | 0.16 | −0.30 | 0.00 | 0.20 | −0.11 | 0.03 | −0.30 | 0.00 | 0.32 | 0.00 | 0.09 | 0.18 | −0.04 | 0.00 | −0.10 | 0.22 | 0.40 | logarithmic value of ratio of IC40 values [19]: −0.09 |
| C=C[C@]1(C)CC[C@@H](C(=C)C)C[C@H]1C(=C)C [b-elemene, β-elemene] | 0.02 | 0.33 | 0.08 | −0.14 | −0.10 | 0.05 | 0.07 | 0.11 | 0.06 | −0.14 | 0.14 | 0.00 | 0.16 | 0.00 | −0.23 | 0.05 | 0.18 | 0.52 | −0.07 | 0.26 | logarithmic value of ratio of IC40 values [19]: 0.07 |
| ICE inhibitor-III [ICEin-3] | 0.20 | 0.00 | 0.32 | −0.15 | 0.30 | 0.09 | 0.07 | 0.11 | 0.18 | −0.15 | −0.12 | 0.00 | 0.00 | −0.21 | 0.33 | −0.11 | −0.088 | −0.11 | −0.09 | 0.04 | logarithmic value of ratio of IC40 values [19]: 0.38 |
